Data: the NIST ThermoML archive (doi:10.1021/je700152c)
Numbers after ± are expanded uncertainties.

Test: molar heat capacity at saturation pressure

CCCCn1cc[n+](C)c1.Cc1ccc(S(=O)(=O)[O-])cc1 [1-butyl-3-methylimidazolium tosylate]
Settings | molar heat capacity [J/K/mol]
5.19 K, Crystal 2 | 2.822 ± 0.12
5.39 K, Crystal 2 | 3.132 ± 0.12
5.69 K, Crystal 2 | 3.579 ± 0.14
5.99 K, Crystal 2 | 4.042 ± 0.15
6.33 K, Crystal 2 | 4.588 ± 0.16
6.71 K, Crystal 2 | 5.224 ± 0.18
7.1 K, Crystal 2 | 5.913 ± 0.2
7.49 K, Crystal 2 | 6.618 ± 0.21
7.88 K, Crystal 2 | 7.372 ± 0.23
8.27 K, Crystal 2 | 8.155 ± 0.25
8.67 K, Crystal 2 | 8.98 ± 0.27
9.06 K, Crystal 2 | 9.831 ± 0.29
9.46 K, Crystal 2 | 10.7 ± 0.31
9.86 K, Crystal 2 | 11.58 ± 0.33
10.37 K, Crystal 2 | 12.77 ± 0.35
10.99 K, Crystal 2 | 14.2 ± 0.38
11.62 K, Crystal 2 | 15.75 ± 0.41
12.24 K, Crystal 2 | 17.23 ± 0.44
12.87 K, Crystal 2 | 18.81 ± 0.47
13.5 K, Crystal 2 | 20.4 ± 0.5
14.13 K, Crystal 2 | 22.01 ± 0.53
14.77 K, Crystal 2 | 23.69 ± 0.56
15.52 K, Crystal 2 | 25.71 ± 0.59
16.38 K, Crystal 2 | 28.11 ± 0.62
17.25 K, Crystal 2 | 30.43 ± 0.65
18.11 K, Crystal 2 | 32.69 ± 0.68
18.98 K, Crystal 2 | 34.95 ± 0.71
19.85 K, Crystal 2 | 37.28 ± 0.74
21.02 K, Crystal 2 | 40.42 ± 0.78
22.47 K, Crystal 2 | 44.36 ± 0.81
23.94 K, Crystal 2 | 48.42 ± 0.84
25.4 K, Crystal 2 | 52.37 ± 0.87
26.86 K, Crystal 2 | 56.28 ± 0.93
27.91 K, Crystal 2 | 59.01 ± 0.93
29.13 K, Crystal 2 | 62.18 ± 0.93
30.61 K, Crystal 2 | 65.96 ± 0.81
32.24 K, Crystal 2 | 70.12 ± 0.87
34.04 K, Crystal 2 | 74.47 ± 0.93
35.85 K, Crystal 2 | 78.78 ± 0.96
37.65 K, Crystal 2 | 82.79 ± 0.99
39.46 K, Crystal 2 | 86.82 ± 1.1
41.36 K, Crystal 2 | 90.86 ± 1.1
43.36 K, Crystal 2 | 95.05 ± 1.1
45.37 K, Crystal 2 | 99.18 ± 1.2
47.37 K, Crystal 2 | 103.21 ± 1.2
49.38 K, Crystal 2 | 107.12 ± 1.2
51.39 K, Crystal 2 | 110.88 ± 1.3
53.4 K, Crystal 2 | 114.57 ± 1.3
55.41 K, Crystal 2 | 118.11 ± 1.4
57.43 K, Crystal 2 | 121.56 ± 1.4
59.46 K, Crystal 2 | 124.97 ± 1.5
61.48 K, Crystal 2 | 128.2 ± 1.5
63.5 K, Crystal 2 | 131.49 ± 1.5
65.48 K, Crystal 2 | 134.6 ± 1.6
67.5 K, Crystal 2 | 137.79 ± 1.6
69.52 K, Crystal 2 | 140.83 ± 1.6
71.55 K, Crystal 2 | 143.85 ± 1.6
73.58 K, Crystal 2 | 146.89 ± 1.7
75.61 K, Crystal 2 | 149.84 ± 1.7
77.64 K, Crystal 2 | 152.66 ± 1.7
78.3 K, Crystal 2 | 153.84 ± 1.7
78.41 K, Crystal 2 | 154.03 ± 1.8
78.68 K, Metastable crystal | 155.18 ± 1.8
79.68 K, Crystal 2 | 155.55 ± 1.8
80.29 K, Crystal 2 | 156.42 ± 1.8
80.4 K, Crystal 2 | 156.6 ± 1.8
80.63 K, Crystal 2 | 156.82 ± 1.8
80.67 K, Metastable crystal | 157.91 ± 1.8
81.72 K, Crystal 2 | 158.34 ± 1.8
82.14 K, Crystal 2 | 158.9 ± 1.8
82.25 K, Crystal 2 | 158.9 ± 1.8
82.53 K, Metastable crystal | 160.36 ± 1.8
82.63 K, Crystal 2 | 159.37 ± 1.8
83.76 K, Crystal 2 | 161.26 ± 1.8
84.01 K, Crystal 2 | 161.35 ± 1.8
84.11 K, Crystal 2 | 161.51 ± 1.8
84.39 K, Metastable crystal | 163.15 ± 1.9
84.49 K, Crystal 2 | 161.88 ± 1.8
85.88 K, Crystal 2 | 163.77 ± 1.9
85.98 K, Crystal 2 | 164.02 ± 1.9
86.26 K, Metastable crystal | 165.85 ± 1.9
86.36 K, Crystal 2 | 164.39 ± 1.9
87.76 K, Crystal 2 | 166.29 ± 1.9
87.86 K, Crystal 2 | 166.47 ± 1.9
88.14 K, Metastable crystal | 168.4 ± 1.9
88.24 K, Crystal 2 | 166.85 ± 1.9
89.65 K, Crystal 2 | 168.77 ± 1.9
89.74 K, Crystal 2 | 168.83 ± 1.9
90.02 K, Metastable crystal | 171.1 ± 1.9
90.12 K, Crystal 2 | 169.39 ± 1.9
91.54 K, Crystal 2 | 171.25 ± 1.9
91.63 K, Crystal 2 | 171.32 ± 1.9
91.92 K, Metastable crystal | 173.77 ± 1.9
92.02 K, Crystal 2 | 171.84 ± 1.9
93.45 K, Crystal 2 | 173.71 ± 1.9
93.54 K, Crystal 2 | 173.8 ± 1.9
93.82 K, Metastable crystal | 176.53 ± 1.9
93.92 K, Crystal 2 | 174.27 ± 1.9
95.36 K, Crystal 2 | 176.16 ± 1.9
95.45 K, Crystal 2 | 176.25 ± 1.9
95.72 K, Metastable crystal | 179.17 ± 2
95.83 K, Crystal 2 | 176.69 ± 1.9
97.28 K, Crystal 2 | 178.64 ± 2
97.37 K, Crystal 2 | 178.7 ± 2
97.64 K, Metastable crystal | 181.78 ± 2
97.75 K, Crystal 2 | 179.08 ± 2
99.21 K, Crystal 2 | 181.03 ± 2
99.29 K, Crystal 2 | 181.06 ± 2
99.55 K, Metastable crystal | 184.48 ± 2
99.67 K, Crystal 2 | 181.44 ± 2
101.08 K, Crystal 2 | 183.3 ± 2
101.16 K, Crystal 2 | 183.36 ± 2
101.42 K, Metastable crystal | 187.02 ± 2
101.54 K, Crystal 2 | 183.8 ± 2
102.89 K, Crystal 2 | 185.56 ± 2
102.98 K, Crystal 2 | 185.56 ± 2
103.22 K, Metastable crystal | 189.6 ± 2
103.36 K, Crystal 2 | 186.06 ± 2
104.71 K, Crystal 2 | 187.86 ± 2
104.79 K, Crystal 2 | 187.86 ± 2
105.03 K, Metastable crystal | 192.05 ± 2.1
105.18 K, Crystal 2 | 188.27 ± 2
106.53 K, Crystal 2 | 190.03 ± 2.1
106.61 K, Crystal 2 | 190.07 ± 2.1
106.84 K, Metastable crystal | 194.54 ± 2.1
107 K, Crystal 2 | 190.5 ± 2.1
108.37 K, Crystal 2 | 192.21 ± 2.1
108.44 K, Crystal 2 | 192.24 ± 2.1
108.66 K, Metastable crystal | 197.08 ± 2.1
108.83 K, Crystal 2 | 192.7 ± 2.1
110.2 K, Crystal 2 | 194.41 ± 2.1
110.27 K, Crystal 2 | 194.41 ± 2.1
110.48 K, Metastable crystal | 199.56 ± 2.2
110.67 K, Crystal 2 | 194.88 ± 2.1
112.03 K, Crystal 2 | 196.58 ± 2.1
112.1 K, Crystal 2 | 196.52 ± 2.1
112.31 K, Metastable crystal | 201.92 ± 2.2
112.5 K, Crystal 2 | 197.14 ± 2.1
113.87 K, Crystal 2 | 198.73 ± 2.1
113.94 K, Crystal 2 | 198.82 ± 2.1
114.13 K, Metastable crystal | 204.5 ± 2.2
114.34 K, Crystal 2 | 199.29 ± 2.1
115.71 K, Crystal 2 | 200.99 ± 2.2
115.78 K, Crystal 2 | 201.09 ± 2.2
115.96 K, Metastable crystal | 207.01 ± 2.2
116.18 K, Crystal 2 | 201.52 ± 2.2
117.56 K, Crystal 2 | 203.23 ± 2.2
117.62 K, Crystal 2 | 203.17 ± 2.2
117.79 K, Metastable crystal | 209.47 ± 2.3
118.02 K, Crystal 2 | 203.66 ± 2.2
119.41 K, Crystal 2 | 205.4 ± 2.2
119.46 K, Crystal 2 | 205.31 ± 2.2
119.62 K, Metastable crystal | 212.17 ± 2.3
119.87 K, Crystal 2 | 205.87 ± 2.2
121.26 K, Crystal 2 | 207.48 ± 2.2
121.3 K, Crystal 2 | 207.51 ± 2.2
121.45 K, Metastable crystal | 214.65 ± 2.3
121.71 K, Crystal 2 | 208.04 ± 2.2
123.11 K, Crystal 2 | 209.71 ± 2.3
123.16 K, Crystal 2 | 209.78 ± 2.3
123.28 K, Metastable crystal | 217.2 ± 2.3
123.56 K, Crystal 2 | 210.24 ± 2.3
124.97 K, Crystal 2 | 211.95 ± 2.3
